In patent US20120220665A1, “Inhibiting Neurotransmitter Reuptake” (MAYO FOUNDATION FOR MEDICAL EDUCATION AND RESEARCH, priority 2009, published 2012):

What was measured:
[1] = system: hSERT (S), hNET (N), hDAT (D); assay: Comparison of binding potency across the three human transporters; details: for Potency (rank order of transporter binding): S = hSERT, N = hNET, D = hDAT, order by KD; for Potency Range: highest KD / lowest KD among hSERT, hNET, hDAT
Description: (§1) HEK-293 cells expressing the recombinant hSERT or hDAT were incubated with Dulbecco's modified Eagles medium (MEM) supplemented with 0.1 mM nonessential amino acid solution for MEM, 5% v/v fetal bovine serum and […] penicillin/streptomycin solution. Cells expressing the hNET transporter were incubated with Dulbecco's modified Eagles medium supplemented with 10% v/v fetal bovine serum and 100 U/mL penicillin/streptomycin solution and 2 mM L-glutamine. All cells were grown until 70-80% confluent on 175 cm^2 flasks in a humidified 10% CO2/90% air environment at 37° C., with the selecting antibiotic Geneticin sulfate at […]. The cells were incubated in 10% CO2, 90% air at 37° C. and 100% humidity.
(§2) Cell membranes containing hSERT, hNET, or hDAT were prepared from the cell lines to assay ligand binding for each of the transporters. […] The washed cells were incubated for 5 minutes at 37° C. in 10 mL solution 1 containing 100 mM ethylene glycol-bis N,N,N′,N′-tetraacetic acid (EGTA). The cells were then scraped from the flask surface with a rubber spatula, placed into a centrifuge tube, and collected by centrifugation at 1000×g for 5 minutes at 4° C. The resulting supernatant was discarded, and the cell pellet was resuspended in 0.5 to1.0 mL of the appropriate binding buffer (described below). The resuspended cell pellet was homogenized using a Polytron for 10 seconds at setting 6. The resulting homogenate was centrifuged at about 36,000×g for 10 minutes at 4° C. The supernatant was discarded, and the pellet was resuspended in the same volume of the appropriate binding buffer and centrifuged again. The supernatant was discarded, and the final pellet containing cell membranes was resuspended in the appropriate binding buffer and stored at −80° C. until use.
(§3) Radioligand binding assays for the indicated transporters were performed as follows. To assess binding to the cloned hSERT, cells expressing hSERT were homogenized in 50 mM Tris-HCl with 120 mM NaCl and 5 mM KCl (pH 7.4). The binding reaction consisted of 10 μg cell membrane protein, 1.0 nM [^3H]citalopram (citalopram, [N-methyl-^3H], specific activity 79.0 Ci/mmol; PerkinElmer, Boston, Mass.), and varying concentrations of either unlabeled citalopram or the test compound. A reaction to determine non-specific binding consisted of 10 μg cell membrane protein, 0.5 nM [^3H]citalopram, and 1 μM final concentration of unlabeled citalopram. The reactions were incubated at 22° C. for 60 minutes. Following incubation, the reactions were terminated by rapid filtration through separate GF/B filter strips pretreated with 0.2% polyethylenimine in a 48-well Brandel cell harvester. The cell membrane-containing filter strips were then rinsed five times with ice-cold 0.9% NaCl. After rinsing, individual filters were cut from the strip and placed in a scintillation vial containing 6.5 mL of Redi-Safe (Beckman-Coulter, Fullerton, Calif.). Radioactivity was measured with a Beckman liquid scintillation counter (LS 6000TA).
(§4) To assess binding to the cloned hNET, cells expressing hNET were homogenized in 50 mM Tris-HCl with 300 mM NaCl and 5 mM KCl (pH 7.4). The binding reaction consisted of 5 μg cell membrane protein, 0.5 nM [^3H]nisoxetine (nisoxetine HCl, [N-methyl-^3H], specific activity 82.0 Ci/mmol; Amersham, Arlington Hts., Ill.), and varying concentrations of either unlabeled nisoxetine or the test compound. A reaction to determine non-specific binding consisted of 5 μg cell membrane protein, 0.5 nM [^3H]nisoxetine, and 1 μM final concentration of unlabeled nisoxetine. The reactions were incubated at 22° C. for 60 minutes. Following incubation, the reactions were terminated by rapid filtration through separate GF/B filter strips pretreated with 0.2% polyethylenimine in a 48-well Brandel cell harvester. The cell membrane-containing filter strips were then rinsed five times with ice-cold 0.9% NaCl.

[2] = biological target: T1, human serotonin transporter (hSERT) (Homo sapiens, UniProt P31645); assay: Human transporter radioligand binding, hSERT ([3H]citalopram, HEK-293 membranes); details: HCl salts of test compounds; n ≥ 3, values marked b n = 1; read-out: Equilibrium Dissociation Constant (KD) for Transporter Binding (Geometric Mean; nM ± SEM) hSERT (S)
T1 construct: expressed in transfected cells; host or cells: HEK-293, stably transfected; membranes
Description: as §1, §2, §3
(§5) Following the radioligand binding assays, the data were analyzed using the
(§6) The program was modified to calculate the Hill coefficient (nH). Data are presented as geometric mean±S.E.M. of at least three independent experiments. One-component models and two-component models were compared using the root mean square error of each fit and the F test.

[3] = biological target: T2, human norepinephrine transporter (hNET) (Homo sapiens, UniProt P23975); assay: Human transporter radioligand binding, hNET ([3H]nisoxetine, HEK-293 membranes); details: HCl salts of test compounds; n ≥ 3, values marked b n = 1; read-out: Equilibrium Dissociation Constant (KD) for Transporter Binding (Geometric Mean; nM ± SEM) hNET (N)
T2 construct: expressed in transfected cells; host or cells: HEK-293, stably transfected; membranes
Description: as §1, §2
as §4, with “NaCl. After rinsing, individual filters were cut from the strip and placed in a scintillation vial containing 6.5 mL of Redi-Safe (Beckman-Coulter, Fullerton, Calif.). Radioactivity was measured with a Beckman liquid scintillation counter (LS 6000TA).” for “NaCl.”
as §5, §6

[4] = biological target: T3, human dopamine transporter (hDAT) (Homo sapiens, UniProt Q01959); assay: Human transporter radioligand binding, hDAT ([3H]WIN35428, HEK-293 membranes); details: HCl salts of test compounds; n ≥ 3, values marked b n = 1; read-out: Equilibrium Dissociation Constant (KD) for Transporter Binding (Geometric Mean; nM ± SEM) hDAT (D)
T3 construct: expressed in transfected cells; host or cells: HEK-293, stably transfected; membranes
Description: as §1, §2
To assess binding to the cloned hDAT, cells expressing hDAT were homogenized in 50 mM Tris-HCl with 120 mM NaCl (pH 7.4). The binding reaction contained 15 μg cell membrane protein, 1 nM [^3H]WIN35428 (WIN35428, [N-methyl-^3H], specific activity 85.9 Ci/mmol; PerkinElmer, Boston, Mass.), and varying concentrations of either unlabeled WIN35428 or the test compound. A reaction to determine non-specific binding contained 15 μg cell membrane protein, 1 nM [^3H]WIN35428, and 10 μM final concentration of unlabeled WIN35428. The reactions were incubated at 22° C. for 1 hour. Following incubation, the reactions were terminated by rapid filtration through separate GF/B filter strips pretreated with 0.2% polyethylenimine in a 48-well Brandel cell harvester. The cell membrane-containing filter strips were then rinsed five times with ice-cold 0.9% NaCl. After rinsing, individual filters were cut from the strip and placed in a scintillation vial containing 6.5 mL of Redi-Safe (Beckman-Coulter, Fullerton, Calif.). Radioactivity was measured with a Beckman liquid scintillation counter (LS 6000TA).
as §5, §6

T1 sequence (P31645 whole entry): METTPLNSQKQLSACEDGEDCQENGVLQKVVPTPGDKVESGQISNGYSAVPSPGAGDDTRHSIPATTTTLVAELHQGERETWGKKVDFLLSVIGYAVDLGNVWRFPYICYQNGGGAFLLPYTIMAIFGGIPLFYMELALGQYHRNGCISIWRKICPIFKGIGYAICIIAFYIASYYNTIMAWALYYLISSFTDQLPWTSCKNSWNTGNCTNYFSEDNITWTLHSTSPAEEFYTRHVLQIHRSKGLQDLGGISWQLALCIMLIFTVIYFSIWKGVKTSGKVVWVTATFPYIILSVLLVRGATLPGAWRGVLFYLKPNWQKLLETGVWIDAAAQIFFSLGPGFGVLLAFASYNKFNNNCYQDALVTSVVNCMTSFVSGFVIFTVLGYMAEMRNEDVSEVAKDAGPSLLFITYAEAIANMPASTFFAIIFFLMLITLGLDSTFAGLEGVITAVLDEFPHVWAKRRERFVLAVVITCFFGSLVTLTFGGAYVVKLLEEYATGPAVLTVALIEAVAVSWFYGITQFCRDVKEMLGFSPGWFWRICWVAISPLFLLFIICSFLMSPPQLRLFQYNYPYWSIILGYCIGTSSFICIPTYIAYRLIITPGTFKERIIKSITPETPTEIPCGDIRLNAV
T3 sequence (Q01959 whole entry): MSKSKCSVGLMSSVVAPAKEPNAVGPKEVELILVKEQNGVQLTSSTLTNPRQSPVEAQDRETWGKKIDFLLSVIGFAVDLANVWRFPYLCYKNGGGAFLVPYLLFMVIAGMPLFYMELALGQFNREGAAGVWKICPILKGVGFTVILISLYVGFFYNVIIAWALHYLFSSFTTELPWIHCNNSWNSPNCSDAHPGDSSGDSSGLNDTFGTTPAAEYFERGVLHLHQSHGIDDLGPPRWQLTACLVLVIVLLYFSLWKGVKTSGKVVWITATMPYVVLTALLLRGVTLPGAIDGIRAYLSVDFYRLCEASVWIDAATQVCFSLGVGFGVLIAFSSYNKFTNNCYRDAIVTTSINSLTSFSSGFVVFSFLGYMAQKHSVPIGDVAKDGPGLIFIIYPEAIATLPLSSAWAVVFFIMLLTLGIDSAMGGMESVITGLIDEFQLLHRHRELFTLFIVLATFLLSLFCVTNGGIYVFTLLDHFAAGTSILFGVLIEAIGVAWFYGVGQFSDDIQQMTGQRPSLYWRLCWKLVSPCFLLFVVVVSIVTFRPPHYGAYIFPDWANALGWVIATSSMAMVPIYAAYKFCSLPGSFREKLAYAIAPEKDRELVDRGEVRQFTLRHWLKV
T2 sequence (P23975 whole entry): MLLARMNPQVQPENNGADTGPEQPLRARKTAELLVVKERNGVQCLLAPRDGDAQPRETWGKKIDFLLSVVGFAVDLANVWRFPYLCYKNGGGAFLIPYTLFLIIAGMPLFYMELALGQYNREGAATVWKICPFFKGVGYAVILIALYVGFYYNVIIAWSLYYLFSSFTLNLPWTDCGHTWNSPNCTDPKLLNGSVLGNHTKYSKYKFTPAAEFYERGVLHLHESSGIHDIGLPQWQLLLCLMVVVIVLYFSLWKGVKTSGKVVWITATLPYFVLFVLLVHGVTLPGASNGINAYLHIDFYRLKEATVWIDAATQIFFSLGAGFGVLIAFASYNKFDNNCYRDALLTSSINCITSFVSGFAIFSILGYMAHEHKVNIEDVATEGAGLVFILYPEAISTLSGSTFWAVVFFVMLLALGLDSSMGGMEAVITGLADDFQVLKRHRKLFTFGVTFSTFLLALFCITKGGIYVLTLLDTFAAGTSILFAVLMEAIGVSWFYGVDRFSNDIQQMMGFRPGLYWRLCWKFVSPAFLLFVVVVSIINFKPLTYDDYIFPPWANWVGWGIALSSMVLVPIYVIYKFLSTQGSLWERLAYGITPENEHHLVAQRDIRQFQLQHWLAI

Compound | Potency (rank order of transporter binding) [1] | Kd [2] | Kd [3] | Kd [4] | Potency Range [1]
CNCC[C@H](Oc1cccc2ccccc12)c1cccs1 [Duloxetine, reference compound] | S > N > D |  |  |  | 
CN(C)CCCN1c2ccccc2CCc2ccccc21 [Imipramine, reference compound] | S > N > D |  |  |  | 
CNC[C@H](c1ccc2ccccc2c1)[C@@H](O)c1ccc(F)cc1 [MCJ001-4F—Ph—OH-RS/SR, (1R,2S)-1-(4-fluorophenyl)-3-(methylamino)-2-(naphthalen-2-yl)propan-1-ol] | S > N > D | 27 ± 4 nM | 49 ± 4 nM | 250 ± 40 nM | 9
CNC[C@H](c1ccc2ccccc2c1)[C@H](O)c1ccc(F)cc1 [MCJ001-4F—Ph—OH-SS/RR, (1S,2S)-1-(4-fluorophenyl)-3-(methylamino)-2-(naphthalen-2-yl)propan-1-ol] | N > S > D | 33 ± 5 nM | 11 ± 1 nM | 90 ± 10 nM | 8
CNCC(c1ccccc1)C(O)c1ccc(Br)cc1 [MCJ001-Br—Ph—OH-RS/SR, (1R,2S/1S,2R)-1-(4-bromophenyl)-3-(methylamino)-2-phenylpropan-1-ol] | D > S > N | 3320 nM | 4500 nM | 1520 nM | 3
CNCC(c1ccccc1)C(O)c1ccc(Br)cc1 [MCJ001-Br—Ph—OH-SS/RR, (1S,2S/1R,2R)-1-(4-bromophenyl)-3-(methylamino)-2-phenylpropan-1-ol] |  | 7300 nM |  | 28400 nM | 
CNC[C@H](c1ccc2ccccc2c1)[C@@H](OCCCCCCCO[C@@H](c1ccccc1)[C@H](CNC)c1ccc2ccccc2c1)c1ccccc1 [MCJ001-Dimer7-SS, (2S,2′S,3R,3′R)-3,3′-(heptane-1,7-diylbis(oxy))bis(N-methyl-2-(naphthalen-2-yl)-3-phenylpropan-1-amine)] | N > S > D | 50 ± 3 nM | 29 ± 1 nM | 180 ± 20 nM | 6
CNC[C@H](c1ccccc1)[C@@H](O)c1ccc(F)cc1 [MCJ001-F—Ph—OH-RS/SR, (1R,2S)-1-(4-fluorophenyl)-3-(methylamino)-2-phenylpropan-1-ol] | N > S > D | 11900 nM | 2660 nM | 75200 nM | 28
CNC[C@H](c1ccccc1)[C@H](O)c1ccc(F)cc1 [MCJ001-F—Ph—OH-SS/RR, (1S,2S)-1-(4-fluorophenyl)-3-(methylamino)-2-phenylpropan-1-ol] | D > N > S | 1260 nM | 514 nM | 107 nM | 12
CNC[C@H](c1ccccc1)[C@@H](O)c1ccc2ccccc2c1 [MCJ001-NA-Ph—OH-RS/SR, (1R,2S/1S,2R)-3-(methylamino)-1-(naphthalen-2-yl)-2-phenylpropan-1-ol] | S > N > D | 75 ± 2 nM | 7620 nM | 8900 ± 20 nM | 120
CNC[C@@H](c1ccccc1)[C@@H](O)c1ccc2ccccc2c1 [MCJ001-NA-Ph—OH-SS/RR, (1S,1R/2S,2R)-3-(methylamino)-1-(naphthalen-2-yl)-2-phenylpropan-1-ol] | S > > N > D | 16 ± 2 nM | 1390 nM | 5800 ± 400 nM | 370
CN(C)C[C@H](c1ccc2ccccc2c1)[C@@H](Cl)c1ccccc1 [MCJ002-Cl-RS, (2S,3R)-3-chloro-N,N-dimethyl-2-(naphthalen-2-yl)-3-phenylpropan-1-amine] | S > N > D | 7.4 ± 0.9 nM | 90 ± 10 nM | 390 ± 30 nM | 53
CN(C)C[C@H](c1ccc2ccccc2c1)[C@H](Cl)c1ccccc1 [MCJ002-Cl-SS, (2S,3S)-3-chloro-N,N-dimethyl-2-(naphthalen-2-yl)-3-phenylpropan-1-amine] | S > N > D | 8.3 ± 0.9 nM | 50 ± 8 nM | 270 ± 30 nM | 32
CN(C)C[C@H](c1ccc2ccccc2c1)[C@@H](F)c1ccccc1 [MCJ002-F-RS, (2S,3R)-3-fluoro-N,N-dimethyl-2-(naphthalen-2-yl)-3-phenylpropan-1-amine] | S > N > D | 7 ± 0.5 nM | 45 ± 3 nM | 280 ± 20 nM | 40
CCN(CC)C(=O)C1(c2ccccc2)CC1CN (stereo not shown) [Milnacipran, reference compound] | S > N > D |  |  |  | 
CN1Cc2c(N)cccc2C(c2ccccc2)C1 (stereo not shown) [Nomifensine, reference compound] | N > D > S |  |  |  | 
CNC[C@H](c1ccc2ccccc2c1)[C@H](O)c1ccccc1 [PRC200-SS, (1S,2S)-3-(methylamino)-2-(naphthalen-2-yl)-1-phenylpropan-1-ol] | N > S > D | 3.8 ± 0.3 nM | 0.6 ± 0.2 nM | 27 ± 3 nM | 45
CCOc1ccccc1OC(c1ccccc1)C1CNCCO1 (stereo not shown) [Reboxetine, reference compound] | N > S > D |  |  |  | 
